Columns and labels:
Format in all cases: functional
Settings in all cases: read-out: IZ
Helicobacter pylori [1] = assay: Antibacterial activity against Helicobacter pylori clinical isolates at 32 ug/disk after 3 to 5 days by filter paper disk diffusion method
Helicobacter pylori [2] = assay: Antibacterial activity against Helicobacter pylori clinical isolates at 4 ug/disk after 3 to 5 days by filter paper disk diffusion method
Helicobacter pylori [3] = assay: Antibacterial activity against Helicobacter pylori clinical isolates at 1 ug/disk after 3 to 5 days by filter paper disk diffusion method
Helicobacter pylori [4] = assay: Antibacterial activity against metronidazole-sensitive Helicobacter pylori at 32 ug/disk after 3 to 5 days by filter paper disk diffusion method
Helicobacter pylori [5] = assay: Antibacterial activity against Helicobacter pylori clinical isolates at 8 ug/disk after 3 to 5 days by filter paper disk diffusion method
Helicobacter pylori [6] = assay: Antibacterial activity against Helicobacter pylori clinical isolates at 0.5 ug/disk after 3 to 5 days by filter paper disk diffusion method
Helicobacter pylori [7] = assay: Antibacterial activity against Helicobacter pylori clinical isolates at 2 ug/disk after 3 to 5 days by filter paper disk diffusion method
Helicobacter pylori [8] = assay: Antibacterial activity against Helicobacter pylori clinical isolates at 16 ug/disk after 3 to 5 days by filter paper disk diffusion method
Helicobacter pylori [9] = assay: Antibacterial activity against metronidazole-sensitive Helicobacter pylori at 8 ug/disk after 3 to 5 days by filter paper disk diffusion method
Helicobacter pylori [10] = assay: Antibacterial activity against metronidazole-resistant Helicobacter pylori at 32 ug/disk after 3 to 5 days by filter paper disk diffusion method
Helicobacter pylori [11] = assay: Antibacterial activity against metronidazole-resistant Helicobacter pylori at 8 ug/disk after 3 to 5 days by filter paper disk diffusion method
Helicobacter pylori [12] = assay: Antibacterial activity against metronidazole-sensitive Helicobacter pylori at 16 ug/disk after 3 to 5 days by filter paper disk diffusion method
Helicobacter pylori [13] = assay: Antibacterial activity against metronidazole-resistant Helicobacter pylori at 16 ug/disk after 3 to 5 days by filter paper disk diffusion method

Row | SMILES | zone of inhibition at 32 µg/disc (Helicobacter pylori [1]) [mm] | zone of inhibition at 4 µg/disc (Helicobacter pylori [2]) [mm] | zone of inhibition at 1 µg/disc (Helicobacter pylori [3]) [mm] | zone of inhibition at 32 µg/disc (Helicobacter pylori [4]) [mm] | zone of inhibition at 8 µg/disc (Helicobacter pylori [5]) [mm] | zone of inhibition at 0.5 µg/disc (Helicobacter pylori [6]) [mm] | zone of inhibition at 2 µg/disc (Helicobacter pylori [7]) [mm] | zone of inhibition at 16 µg/disc (Helicobacter pylori [8]) [mm] | zone of inhibition at 8 µg/disc (Helicobacter pylori [9]) [mm] | zone of inhibition at 32 µg/disc (Helicobacter pylori [10]) [mm] | zone of inhibition at 8 µg/disc (Helicobacter pylori [11]) [mm] | zone of inhibition at 16 µg/disc (Helicobacter pylori [12]) [mm] | zone of inhibition at 16 µg/disc (Helicobacter pylori [13]) [mm]
1 | O=[N+]([O-])c1ccc(-c2nnc(N3CCSCC3)s2)o1 | 36.9 | 27.7 | 18.3 | 41 | 30.1 | 10.8 | 23.4 | 32.9 | 32 | 42 | 26 | 35 | 37
2 | O=[N+]([O-])c1ccc(-c2nnc(N3CCSCC3)s2)s1 | – | – | – | 22 | – | – | – | – | 16 | 21 | 16 | 18 | 19
3 | O=[N+]([O-])c1ccc(-c2nnc(N3CC[S+]([O-])CC3)s2)s1 | 45 | 28.1 | 18.5 | 46 | 34.4 | 13.7 | 23.6 | 39.9 | 34 | 41 | 32 | 39 | 35
4 | O=[N+]([O-])c1ccc(-c2nnc(N3CCS(=O)(=O)CC3)s2)o1 | 44.3 | 30.7 | 21 | > 50 | 36.1 | 16.6 | 25.5 | 40.7 | 43 | 46 | 41 | 50 | 43
5 | O=[N+]([O-])c1ccc(-c2nnc(N3CC[S+]([O-])CC3)s2)o1 | 41.9 | 25.4 | 13.4 | 46 | 31 | 7.3 | 19.9 | 37.1 | 35 | 43 | 35 | 41 | 40
6 | Cn1c([N+](=O)[O-])cnc1-c1nnc(N2CCCCC2)s1 | – | – | – | 6 | – | – | – | – | 6 | 6 | 6 | 6 | 6
7 | Cn1c([N+](=O)[O-])cnc1-c1nnc(N2CCS(=O)(=O)CC2)s1 | 37.3 | 25.9 | 14.9 | 45 | 30.2 | 10.6 | 19.3 | 33.9 | 32 | 40 | 27 | 40 | 36
8 | CC1(C)S[C@@H]2[C@H](NC(=O)[C@H](N)c3ccc(O)cc3)C(=O)N2[C@H]1C(=O)O [AMOXICILLIN] | – | – | 24.5 | – | – | – | – | – | – | – | – | – | –
9 | Cc1ncc([N+](=O)[O-])n1CCO [METRONIDAZOLE] | – | – | – | – | 16.3 | – | – | – | 18 | – | 11 | – | –

Source: ChEMBL document CHEMBL1140970, “Synthesis and in vitro anti-Helicobacter pylori activity of N-[5-(5-nitro-2-heteroaryl)-1,3,4-thiadiazol-2-yl]thiomorpholines and related compounds” (2008)
